What was measured:
[1] = target: T1, human recombinant bradykinin B1 receptor (Homo sapiens, UniProt P46663); assay: Human recombinant bradykinin B1 receptor competitive radioligand binding; conditions: hB1 expressed in CHO cells, [3H]-[Des-Arg10] Kallidin radioligand; read-out: B1 binding
T1 construct: host or cells: CHO cells, clone hB1-A5
T1 sequence (P46663 1-353): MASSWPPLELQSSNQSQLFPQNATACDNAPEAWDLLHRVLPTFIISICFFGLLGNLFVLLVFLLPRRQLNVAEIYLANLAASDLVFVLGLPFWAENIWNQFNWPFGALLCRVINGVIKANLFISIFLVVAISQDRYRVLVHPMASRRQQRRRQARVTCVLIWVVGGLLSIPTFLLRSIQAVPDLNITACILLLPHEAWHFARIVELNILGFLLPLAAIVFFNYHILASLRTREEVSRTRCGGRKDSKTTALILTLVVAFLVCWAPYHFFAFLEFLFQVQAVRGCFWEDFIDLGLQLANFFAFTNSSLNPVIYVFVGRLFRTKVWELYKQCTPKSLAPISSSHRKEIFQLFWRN
Procedure, shortened: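 Membranes from CHO cells expressing hB1 (20 μg protein/tube) incubated 15 min at 25° C. with [3,4-prolyl-3,4-^3H(N)]-[Des-Arg^10] Kallidin; nonspecific binding defined with 10 μM Lys-des-Arg^9-Bradykinin. Bound label collected by filtration and counted. IC50 from ≥7-point curves in triplicate; Ki by Cheng-Prusoff.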

[2] = target: T2, recombinant human B1 receptors (Homo sapiens, UniProt P46663); assay: Functional assay: antagonist potency by cytosolic calcium measurement (plate reader fluorimeter) in CHO-B1 cells, agonist LysDABK; assay type: cell-based; conditions: CHO-B1 cells, inhibition of LysDABK (EC80)-evoked [Ca2+]i elevation; read-out: B1 func.
T2 construct: host or cells: CHO (CHO-B1)
T2 sequence (P46663 1-353): T1 sequence (P46663 1-353)
Procedure, shortened: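 IC50 is the concentration giving half-maximal inhibition of the LysDABK (EC80) calcium response, fitted from at least three experiments. CHO cells stably expressing human B1 were dye-loaded, exposed to compound for 20-25 min, then read by fluo-4 fluorescence (ΔF/F) at 37 °C.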

Compound | Ki [1] [µM] | IC50 [2] [µM]
Cc1ccc(C(=O)NC2(C(=O)NCc3ccc(-n4c(-c5noc(C)n5)c(Cl)c5ccccc54)cc3)CC2)c(Cl)n1 [Example 156, 2-Chloro-N-(1-{4-[3-chloro-2-(5-methyl-[1,2,4]oxadiazol-3-yl)-indol-1-yl]-benzylcarbamoyl}-cyclopropyl)-6-methyl-nicotinamide] | < 0.02 | < 0.02
Cc1nc(-c2c(Cl)c3ccccc3n2-c2ccc(CNC(=O)C3(NC(=O)c4cccc(Br)n4)CC3)cc2)no1 [Example 157, 6-Bromo-pyridine-2-carboxylic acid (1-{4-[3-chloro-2-(5-methyl-[1,2,4]oxadiazol-3-yl)-indol-1-yl]-benzylcarbamoyl}-cyclopropyl)-amide] | < 0.02 | 0.02 to 0.1
Cc1nc(-c2c(Cl)c3ccccc3n2-c2ccc(CNC(=O)C3(NC(=O)c4cccnc4)CC3)cc2)no1 [Example 158, N-(1-{4-[3-Chloro-2-(5-methyl-[1,2,4]oxadiazol-3-yl)-indol-1-yl]-benzylcarbamoyl}-cyclopropyl)-nicotinamide] | < 0.02 | < 0.02
Cc1nc(-c2c(Cl)c3ccccc3n2-c2ccc(CNC(=O)C3(NC(=O)c4cnc5ccccc5c4)CC3)cc2)no1 [Example 159, Quinoline-3-carboxylic acid (1-{4-[3-chloro-2-(5-methyl-[1,2,4]oxadiazol-3-yl)-indol-1-yl]-benzylcarbamoyl}-cyclopropyl)-amide] | < 0.02 | < 0.02
Cc1nc(-c2c(Cl)c3ccccc3n2-c2ccc(CNC(=O)C3(NC(=O)c4ccc(=O)[nH]c4)CC3)cc2)no1 [Example 160, 6-Oxo-1,6-dihydro-pyridine-3-carboxylic acid (1-{4-[3-chloro-2-(5-methyl-[1,2,4]oxadiazol-3-yl)-indol-1-yl]-benzylcarbamoyl}-cyclopropyl)-amide] | < 0.02 | < 0.02
Cc1cnc(C(=O)NC2(C(=O)NCc3ccc(-n4c(-c5noc(C)n5)c(Cl)c5ccccc54)cc3)CC2)cn1 [Example 161, 5-Methyl-pyrazine-2-carboxylic acid (1-{4-[3-chloro-2-(5-methyl-[1,2,4]oxadiazol-3-yl)-indol-1-yl]-benzylcarbamoyl}-cyclopropyl)-amide] | < 0.02 | 0.02 to 0.1
Cc1nc(-c2c(Cl)c3ccccc3n2-c2ccc(CNC(=O)C3(NC(=O)c4cccc(=O)[nH]4)CC3)cc2)no1 [Example 162, 6-Oxo-1,6-dihydro-pyridine-2-carboxylic acid (1-{4-[3-chloro-2-(5-methyl-[1,2,4]oxadiazol-3-yl)-indol-1-yl]-benzylcarbamoyl}-cyclopropyl)-amide] | < 0.02 | < 0.02
Cc1nc(-c2c(Cl)c3ccccc3n2-c2ccc(CNC(=O)C3(NC(=O)CC(F)(F)F)CC3)cc2)no1 [Example 163, 1-(3,3,3-Trifluoro-propionylamino)-cyclopropanecarboxylic acid 4-[3-chloro-2-(5-methyl-[1,2,4]oxadiazol-3-yl)-indol-1-yl]-benzylamide] | < 0.02 | < 0.02
Cc1nc(-c2c(Cl)c3ccccc3n2-c2ccc(CNC(=O)C3(NC(=O)c4ccnc(F)c4)CC3)cc2)no1 [Example 164, N-(1-{4-[3-Chloro-2-(5-methyl-[1,2,4]oxadiazol-3-yl)-indol-1-yl]-benzylcarbamoyl}-cyclopropyl)-2-fluoro-isonicotinamide] | < 0.02 | < 0.02
Cc1nc(-c2c(Cl)c3ccccc3n2-c2ccc(CNC(=O)C3(NC(=O)c4cc(C5CC5)on4)CC3)cc2)no1 [Example 165, 5-Cyclopropyl-isoxazole-3-carboxylic acid (1-{4-[3-chloro-2-(5-methyl-[1,2,4]oxadiazol-3-yl)-indol-1-yl]-benzylcarbamoyl}-cyclopropyl)-amide] | < 0.02 | < 0.02
Cc1nc(-c2c(Cl)c3ccccc3n2-c2ccc(CNC(=O)C3(NC(=O)c4cncnc4)CC3)cc2)no1 [Example 166, Pyrimidine-5-carboxylic acid (1-{4-[3-chloro-2-(5-methyl-[1,2,4]oxadiazol-3-yl)indol-1-yl]-benzylcarbamoyl}-cyclopropyl)-amide] | < 0.02 | < 0.02
Cc1nc(-c2c(Cl)c3ccccc3n2-c2ccc(CNC(=O)C3(NC(=O)c4ccsc4)CC3)cc2)no1 [Example 167, Thiophene-3-carboxylic acid (1-{4-[3-chloro-2-(5-methyl-[1,2,4]oxadiazol-3-yl)-indol-1-yl]-benzylcarbamoyl}-cyclopropyl)-amide] | 0.02 to 0.1 | 0.02 to 0.1
Cc1nc(-c2c(Cl)c3ccccc3n2-c2ccc(CNC(=O)C3(NC(=O)C4CCC(=O)N4)CC3)cc2)no1 (centres unmarked) [Example 168, 5-Oxo-pyrrolidine-2-carboxylic acid (1-{4-[3-chloro-2-(5-methyl-[1,2,4]oxadiazol-3-yl)-indol-1-yl]-benzylcarbamoyl}-cyclopropyl)-amide] | < 0.02 | 0.02 to 0.1
Cc1nc(-c2c(Cl)c3ccccc3n2-c2ccc(CNC(=O)C3(NC(=O)C=Cc4ccoc4)CC3)cc2)no1 [Example 169, 1-(3-Furan-3-yl-acryloylamino)-cyclopropanecarboxylic acid 4-[3-chloro-2-(5-methyl-[1,2,4]oxadiazol-3-yl)-indol-1-yl]-benzylamide] | < 0.02 | < 0.02
Cc1nc(-c2c(Cl)c3ccccc3n2-c2ccc(CNC(=O)C3(NC(=O)c4ccc(C#N)cc4)CC3)cc2)no1 [Example 170, N-(1-{4-[3-Chloro-2-(5-methyl-[1,2,4]oxadiazol-3-yl)-indol-1-yl]-benzylcarbamoyl}-cyclopropyl)-4-cyano-benzamide] | < 0.02 | 0.02 to 0.1
Cc1nc(-c2c(Cl)c3ccccc3n2-c2ccc(CNC(=O)C3(NC(=O)C=Cc4ccco4)CC3)cc2)no1 [Example 171, 1-(3-Furan-2-yl-acryloylamino)-cyclopropanecarboxylic acid 4-[3-chloro-2-(5-methyl-[1,2,4]oxadiazol-3-yl)-indol-1-yl]-benzylamide] | < 0.02 | 0.02 to 0.1
Cc1nc(-c2c(Cl)c3ccccc3n2-c2ccc(CNC(=O)C3(NC(=O)c4cccs4)CC3)cc2)no1 [Example 172, Thiophene-2-carboxylic acid (1-{4-[3-chloro-2-(5-methyl-[1,2,4]oxadiazol-3-yl)-indol-1-yl]-benzylcarbamoyl}-cyclopropyl)-amide] | < 0.02 | < 0.02
CSc1ccc(C(=O)NC2(C(=O)NCc3ccc(-n4c(-c5noc(C)n5)c(Cl)c5ccccc54)cc3)CC2)s1 [Example 173, 5-Methylsulfanyl-thiophene-2-carboxylic acid (1-{4-[3-chloro-2-(5-methyl-[1,2,4]oxadiazol-3-yl)-indol-1-yl]-benzylcarbamoyl}-cyclopropyl)-amide] | < 0.02 | 0.02 to 0.1
Cc1nc(-c2c(Cl)c3ccccc3n2-c2ccc(CNC(=O)C3(NC(=O)c4csnn4)CC3)cc2)no1 [Example 174, [1,2,3]Thiadiazole-4-carboxylic acid (1-{4-[3-chloro-2-(5-methyl-[1,2,4]oxadiazol-3-yl)-indol-1-yl]-benzylcarbamoyl}-cyclopropyl)-amide] | < 0.02 | < 0.02
